The values below come from publication PMC9918900, “New Succinimide–Thiazolidinedione Hybrids as Multitarget Antidiabetic Agents: Design, Synthesis, Bioevaluation, and Molecular Modelling Studies” (Molecules, 2023).

Data set [1] addresses α-glucosidase. In words: in vitro α-glucosidase inhibitory activity. The format is biochemical, Homo sapiens. The procedure: The inhibitory analyses for α-glucosidase were carried out in accordance with the protocols reported in the literature; the inhibitory activities of the synthesized hybrids were calculated utilizing screening assay tools.
Data set [2] has as its target T1, PTP1B (Homo sapiens, UniProt P18031).
T1 sequence (P18031 1-435): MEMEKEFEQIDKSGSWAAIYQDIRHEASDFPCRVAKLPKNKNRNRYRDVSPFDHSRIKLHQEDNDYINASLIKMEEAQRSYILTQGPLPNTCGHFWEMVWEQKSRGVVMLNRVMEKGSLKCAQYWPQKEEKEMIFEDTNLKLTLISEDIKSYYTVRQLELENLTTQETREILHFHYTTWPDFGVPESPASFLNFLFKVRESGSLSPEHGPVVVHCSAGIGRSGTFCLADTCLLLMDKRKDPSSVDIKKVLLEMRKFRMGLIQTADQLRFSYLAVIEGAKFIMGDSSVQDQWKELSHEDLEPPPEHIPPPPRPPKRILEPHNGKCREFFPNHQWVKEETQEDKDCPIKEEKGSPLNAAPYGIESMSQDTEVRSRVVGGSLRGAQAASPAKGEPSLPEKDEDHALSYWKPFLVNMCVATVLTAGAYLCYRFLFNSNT
As to the kind of experiment: PTP1B assay (pNPP substrate). In kind it is biochemical. The procedure: The aforementioned newly synthesize succinimides and thiazolidinedione hybrids were tested against the PTP1B enzyme to determine their ability to inhibit the negative regulation of insulin as well as leptin signaling. The PTP1B test was performed with a small modification to the method described in the publications. The enzyme efficiency was evaluated using […] (pNPP) as a substrate. For the buffer solution, 0.5 millimolar (mM) of ethylene diamine tetraacetic acid (EDTA), 1 mM of mercaptoethanol, 0.55 mM of dithiothreitol (DTT), and 12.49 mM of TRIS hydrochloride (ph = 7.4) were used. The experiment was carried out by mixing 10.0 μL of the test compound solutions with 20.0 μL of the enzyme (1 μg/mL), subsequently injecting 40.0 μL of 4.0 mM 4-nitrophenyl dihydrogen phosphate in 130.5 μL of the prescribed buffer in a microplate well at 37 °C for 10 min. pNP was formed during the enzymatic process, which was monitored for 30 min. The IC50 values were derived using a non-linear regression analysis of the fraction of the product generated vs. the log of the inhibitory concentration.

For data set [3], the target named is T2, human DPP-4 enzyme (Homo sapiens, UniProt P27487).
T2 construct: purchased
T2 sequence (P27487 whole entry): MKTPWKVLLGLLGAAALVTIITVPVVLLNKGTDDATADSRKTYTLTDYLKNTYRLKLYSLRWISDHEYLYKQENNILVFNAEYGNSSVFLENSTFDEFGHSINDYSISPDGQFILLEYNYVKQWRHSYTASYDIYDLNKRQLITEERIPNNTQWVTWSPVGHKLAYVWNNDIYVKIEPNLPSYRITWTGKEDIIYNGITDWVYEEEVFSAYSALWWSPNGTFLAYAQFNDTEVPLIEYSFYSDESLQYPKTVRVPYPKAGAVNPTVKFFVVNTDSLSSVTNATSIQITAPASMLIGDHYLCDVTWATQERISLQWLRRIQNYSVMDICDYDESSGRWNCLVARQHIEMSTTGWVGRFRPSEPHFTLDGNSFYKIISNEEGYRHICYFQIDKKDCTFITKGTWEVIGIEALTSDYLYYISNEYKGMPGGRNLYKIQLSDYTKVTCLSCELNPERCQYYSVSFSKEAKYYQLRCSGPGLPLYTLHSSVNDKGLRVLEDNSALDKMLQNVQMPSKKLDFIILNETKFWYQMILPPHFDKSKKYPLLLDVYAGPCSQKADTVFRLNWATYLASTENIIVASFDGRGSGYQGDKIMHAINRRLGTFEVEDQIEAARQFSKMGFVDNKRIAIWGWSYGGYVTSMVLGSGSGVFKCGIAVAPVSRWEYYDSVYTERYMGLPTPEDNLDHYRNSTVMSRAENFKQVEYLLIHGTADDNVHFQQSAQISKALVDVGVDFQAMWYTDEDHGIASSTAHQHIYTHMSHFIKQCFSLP
As to the kind of experiment: DPP-4 activity bioassay. In kind it is biochemical. The procedure: All succinimides and thiazolidinedione hybrids were tested for DPP-4 inhibitory effects on a human DPP-4 enzyme using the methodology published before. The DPP-4 kit was used to measure the inhibition. L-thiazolidine (P32/98) was included as a reference. The hybrids and DPP-4 enzyme were both adulterated 1/50 in the assay buffer (PH = 7.4, 25 mM Tris). Following that, a microplate well was filled with 5 μL of assay buffer, 3 μL of enzyme solution, and 2 μL of adequately diluted test chemical solutions. After a 12-min incubation period at 37.5 °C, a diluted substrate solution of 25 μL was added into the solution. A multi-mode reader was used to assess the fluorescence. […] PRISM5 was used to calculate the IC50 values and compare the inhibition ratio to the control without the inhibitor.

The subject of data set [4] is rats. In words: acute oral toxicity study, limit test (OECD up and down procedure). The format is in vivo. The procedure:
For the acute toxicity study, a limit test on the laboratory animals at 2000 mg/kg body weight was selected and the up and down procedure (UDP) was followed as per the guidelines of the Organization for Economic Cooperation and Development (OECD). The purpose was to evaluate the dose necessary to perform various pharmacological activities.
Healthy young adult male rats of about 8 to 12 weeks old were selected for dosing.
The rats were randomly selected, marked for an individual identification, and retained in their cages for at least 5 days before dosing to acclimatize to the laboratory conditions. Prior to dosing, the animals were fasted and they were refrained from food, not water, for 16–18 h.
After the fasting period, the weight of each animal was determined and according to the body weight of the animals, the dose at 2000 mg/kg body weight was calculated for each animal. A unique dose of the studied compound 10d was administered to the animals for the UDP study by the oral route using an intragastric cannula 16 G, and it was planned to dose the five animals on the same day. […] The onset time, toxic reactions, and length of the recovery period determined the duration of the observation and when considered necessary, may be extended. […] Individual observations were recorded and maintained systematically for each animal. […]

By IC50 is commonly meant the concentration at which inhibition is half-maximal. As a reminder, the inhibition is the change of the read-out against control, counted positive when it falls. In the case of `CC(C)(C=C1SC(=O)N(C(=O)CN2CCOCC2)C1=O)C1CC(=O)N(Cc2ccccc2)C1=O` (centres unmarked) [10d], the figures for the IC50 in data set [1], in data set [2] and in data set [3] (read-out: IC50 DPP4) were 10 µM, 3.64 µM and 4.22 µM, respectively. Further, the “% α-Glucosidase Inhibition” value stood at 67.10 ± 0.95% in data set [1] (31.25 µM); 72.26 ± 0.77% in data set [1] (62.5 µM); 77.93 ± 0.90% in data set [1] (125 µM); 83.83 ± 0.66% in data set [1] (250 µM); 88.43 ± 1.26% in data set [1] (500 µM). In addition, the inhibition at 31.25 µM is 71.8% in data set [2] (31.25 µM) and 71.4% in data set [3] (31.25 µM, read-out: DPP4 (inhibition) (converted)). Further, the inhibition at 62.5 µM in data set [2] (62.5 µM) was 74.7%; in data set [3] (62.5 µM, read-out: DPP4 (inhibition) (converted)) it was 76.5%. For the same compound, the inhibition at 125 µM was 79% in data set [2] (125 µM) and 81.4% in data set [3] (125 µM, read-out: DPP4 (inhibition) (converted)). Besides, the inhibition at 250 µM is 84.5% in data set [2] (250 µM) and 85.3% in data set [3] (250 µM, read-out: DPP4 (inhibition) (converted)). Besides, the inhibition at 500 µM amounted to 89.88 ± 0.89% in data set [2] (500 µM) and 91.4 ± 1.49% in data set [3] (500 µM, read-out: DPP4 (inhibition)). Moreover, the “acute toxicity observation (behavior, mortality)” value in data set [4] (limit dose 2000 mg/kg body weight, observed 14 days) is “no abnormal changes in their behavior and no mortality”. Besides, in data set [4] (maximum dose 2000 mg/kg), the “LD50 class as per OECD guidelines” value is “class IV”.
